Laboratory results: patent US7005537B2, “Production of esters” (ExxonMobil Chemical Patents Inc., priority 1999, dated 2006)

Key:
Assay type in all cases: physicochemical
[1] = Fluid solvent properties
From the text: One of ordinary skill in the art can readily determine the flash point of a fluid or blend (e.g., ASTM D92-78).

[2] = Stability of solvent to acid catalyst (pTSA) in acrylic solvent system, GC; conditions: for Wt. % of Solvent At One Week Decomposition Period / Wt. % of Solvent At Three Week Decomposition Period: 0.5 wt % pTSA, 50° C., nitrogen, 100 at start of test
Description: Acrylic solvent systems were prepared to test the stability of methyl pivalate to acid catalysts, which are commonly present in coating compositions. The formulations contained 29.9 wt % MP, 28.7 wt % pentyl acetate, 20.2 wt % n-butyl acetate, 16.1 wt % n-butyl alcohol, 3.6 wt % methyl ethyl ketone, 1.5 wt % isopropyl alcohol. 2 wt % toluene as an internal standard. The latter materials were purchased from Aldrich Chemical Co.
Para toluene sulfonic acid (pTSA) was added to the above formulation (again, pTSA was purchased from Aldrich Chemical Co.), in the amount of 0.5 wt %. The solutions were sealed and placed in an oven at 50° C. under a nitrogen atmosphere. Samples were withdrawn at intervals for testing. The content of methyl pivalate was monitored over time by gas chromatographic analysis using an HP 5890 gas chromatograph. In a parallel experiment an equal amount of tert butyl acetate was used instead of methyl pivalate. The results are shown below in Table 7 (all percentages are by weight).

[3] = Reid Vapor Pressure
From the text: The invention also includes producing a gasoline fuel containing an ester for use in internal combustion engines, wherein the ester has a Reid Vapor Pressure less than about 4 pounds per square inch. An important factor in determining a compound's ozone formation potential includes the compound's vapor pressure. Compounds with relatively high vapor pressures are more likely to volatilize into the atmosphere from open sources. Potential open sources include, for example, sources from production, distribution, storage and/or combustion of fuels containing oxygenates. The C7 to C14 esters according to the invention are expected to have low vapor pressures in comparison to MTBE and some other oxygenates. Preferably, the esters have a RVP less than about 3.5 psi. More preferably, less than about 3.0 or 2.0 psi. For example, Methyl Pivalate has a Reid Vapor Pressure of about 1.6 psi.

Structure (SMILES) | Hansen Solubility Parameter H-Bonding [1] | Hansen Solubility Parameter Nonpolar [1] | Hansen Solubility Parameter Polar [1] | Hansen Solubility Parameter Total [1] | Surface Tension [1] | stability to acid catalysts (in words) [2] | Wt. % of Solvent At One Week Decomposition Period [2] [Wt. %] | Wt. % of Solvent At Three Week Decomposition Period [2] [Wt. %] | Flash Point [1] [°C] | Reid Vapor Pressure [3]
CC(C)=O [Acetone] | 3.4 | 7.6 | 5.1 | 9.2 | 22.3 | – | – | – | – | –
CC(=O)OC(C)(C)C [t-butyl acetate, tertiary butyl acetate] | – | – | – | – | – | not inert with respect to acids | 65.9 | 24.1 | – | –
COC(=O)C(C)(C)C [Methyl Pivalate, methyl pivalate (methyl 1,1,1-trimethyl acetate)] | – | – | – | – | 23.8 | more stable to acid catalysts than is t-butyl acetate | 88.0 | 65.1 | 7 | about 1.6 psi
